# In patent publication US6251949A, “Oxime derivatives, hydrazone derivatives and use thereof” (Shionogi & Co., Ltd., priority 1996, dated 2001):
# What was measured:
# Assay type in all cases: in vivo
# tachykinin receptor [1] = molecular target: T1, tachykinin receptor (Cavia porcellus, UniProt P30547); test: Tachykinin receptor antagonistic effect: capsaicin-induced increase in blood vessel permeability, trachea; details: guinea pig, iv, read-out: ED50 Guinea pig trachea
# T1 construct: from tissue; host or cells: guinea pig trachea, in vivo
# T1 sequence (P30547 whole entry): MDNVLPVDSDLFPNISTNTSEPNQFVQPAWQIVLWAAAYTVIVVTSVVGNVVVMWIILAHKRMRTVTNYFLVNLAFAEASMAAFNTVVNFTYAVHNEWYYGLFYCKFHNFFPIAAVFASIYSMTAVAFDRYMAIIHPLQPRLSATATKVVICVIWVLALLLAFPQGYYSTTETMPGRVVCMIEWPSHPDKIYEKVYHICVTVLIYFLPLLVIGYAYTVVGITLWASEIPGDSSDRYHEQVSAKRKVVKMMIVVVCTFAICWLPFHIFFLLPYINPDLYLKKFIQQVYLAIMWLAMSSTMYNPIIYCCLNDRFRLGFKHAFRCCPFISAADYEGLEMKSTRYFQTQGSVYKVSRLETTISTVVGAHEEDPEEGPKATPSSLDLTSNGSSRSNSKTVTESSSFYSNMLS
# Method: (§1) The tachykinin receptor antagonistic effect of a compound according to the present invention was investigated by the method described below.
# (§2) [Effect of compound on capsaicin-induced increase in blood vessel permeability]
# (§3) 5 Minutes after giving Evans Blue (30 mg/kg, i.v.) to a guinea pig anesthetized with pentobarbital (30 mg/kg, i.p.), a test compound dissolved in […] was injected intravenously. After further 5 minutes, capsaicin (0.15 mg/kg, i.v.) was given to induce the plasma transudation. 5 Minutes after administration of capsaicin, the guinea pig was sacrificed to isolate the trachea and the urinary bladder. After extraction with formamide for 24 hours, the dye content in each tissue was quantified on the basis of the absorbance at 620 nm, and the amount of the dye transudated into the tissue was calculated from the calibration curve.
# (§4) By the method described above, the amount of the compound required to obtain 50% suppression (ED50) was determined and represented in units (mg/kg).
# Pyricularia oryzae = details: rice seedling, 6 days after inoculation
# tachykinin receptor [2] = molecular target: T1, tachykinin receptor; test: Tachykinin receptor antagonistic effect: capsaicin-induced increase in blood vessel permeability, urinary bladder; details: guinea pig, iv, read-out: ED50 Guinea pig urinary bladder
# Method: as §1, §2, §3, §4
Structure (SMILES),ED50 (tachykinin receptor [1]) [mg/kg],Controlling effect on rice blight (Pyricularia oryzae) by foliage application at 500 ppm (% control) (Pyricularia oryzae) [%],ED50 (tachykinin receptor [2]) [mg/kg]
CON=C(C)C(=NOCc1ccccc1Cl)C(=O)N1CCC(NC(C)=O)CC1 [Compound M-11],0.024,,
"O=C1OCc2c(Cl)c(Cl)c(Cl)c(Cl)c21 [Fthalide, reference compound]",,97,
CON=C(C(=O)N1CCOCC1)C(C)=NOCc1ccccc1 [Compound W-176],0.145,,0.075
C=CCON=C(C)C(=NOCc1ccccc1Cl)C(=O)N(C)C [Compound C-86],,90,
C=CCON=C(C)C(=NOCc1ccc(Cl)c(Cl)c1)C(=O)N(C)C [Compound C-96],,90,
C=CCON=C(C)C(=NOCc1ccccc1Cl)C(=O)N1CCC(NC(C)=O)CC1 [Compound M-86],0.085,,
CON=C(C(=O)N1CCN(C)CC1)C(C)=NOCc1ccccc1Cl [Compound b-251],0.017,,0.017
C=CCON=C(C)C(=NOCc1ccc(OC)cc1Cl)C(=O)N(C)C [Compound C-95],,90,
C=CCON=C(C)C(=NOCc1ccc(Cl)c(Cl)c1)C(=O)N1CCOCC1 [Compound W-96],0.04,,
CON=C(C)C(=NOCc1ccccc1Cl)C(=O)N(C)C [Compound C-11],,90,
C=CCON=C(C(=O)N1CCN(C)CC1)C(C)=NOCc1ccccc1 [b-180],0.054,,0.087
